Reference: patent publication US11096910B2, “Metabolically robust analogs of CYP-eicosanoids for the treatment of cardiac disease” (OMEICOS THERAPEUTICS GMBH, priority 2015, dated 2021)
In brackets after ≈: the same amount, converted by molar mass. Where two headings read alike, the source gives them in different places.

Assays:
[1] = target: T1, human soluble expoxide hydrolase (sEH) (Homo sapiens, UniProt P34913); experiment: In vitro inhibition of recombinant human soluble epoxide hydrolase; format: biochemical; conditions: 10 μM compound, 50 μM 14,15-EET substrate, vs vehicle control
T1 construct: purchased Cayman Chemicals
T1 sequence (P34913 1-555): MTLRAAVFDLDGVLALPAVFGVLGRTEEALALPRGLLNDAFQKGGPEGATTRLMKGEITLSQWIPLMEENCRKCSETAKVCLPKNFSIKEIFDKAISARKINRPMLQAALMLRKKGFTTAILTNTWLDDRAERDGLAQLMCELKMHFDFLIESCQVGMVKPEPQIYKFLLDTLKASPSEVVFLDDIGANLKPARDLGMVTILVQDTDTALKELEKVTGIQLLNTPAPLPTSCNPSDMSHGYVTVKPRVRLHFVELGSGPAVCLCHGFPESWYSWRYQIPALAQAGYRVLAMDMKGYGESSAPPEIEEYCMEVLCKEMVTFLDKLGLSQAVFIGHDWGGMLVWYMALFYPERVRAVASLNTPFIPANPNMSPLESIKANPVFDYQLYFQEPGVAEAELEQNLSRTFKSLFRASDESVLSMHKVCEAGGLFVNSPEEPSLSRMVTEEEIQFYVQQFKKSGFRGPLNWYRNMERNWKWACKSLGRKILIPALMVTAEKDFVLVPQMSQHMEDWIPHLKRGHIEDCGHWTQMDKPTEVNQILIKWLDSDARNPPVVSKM
Protocol: A selection of compounds was tested for the ability to inhibit human soluble expoxide hydrolase (sEH). […] Briefly, the assay was performed at 37° C. for 20 min in a final volume of 100 μL potassium phosphate buffer (0.1 M, pH 7.2) containing 50 μM 14,15-EET as substrate. The reactions were started by adding enzyme (107.5 ng per reaction, 12.06 U/ml activity, Cayman Chemicals) and terminated with 300 μl ethyl acetate. […] Metabolically robust analogs shown in FIG. 5 were tested at final concentration of 10 μM for potency of sEH-inhibition compared to vehicle control (1% DMSO), n=2-4.

Aqueous solubility = format: physicochemical; conditions: for solubility at 24 h: deionised water, 37 °C, pH 5.9, water, thermodynamic from solid, pH 5.90, 24 hours agitation
Protocol: Known amounts of the compounds were suspended by agitation for 24 hours. The filtrates were isolated and content of the appropriate compounds was determined by HPLC analysis.

[2] = Plasma pharmacokinetics after single intravenous and oral administration; design: species or system male C57BL/6 mice; conditions: male, C57BL/6, mouse, in vivo
Protocol: To gain insight into pharmacological properties of synthetic 17,18-EEQ agonists pharmacokinetic studies were performed with two selected compounds (Comp-02 and Comp-06). These compounds were pharmacologically evaluated in plasma after single intravenous and oral administration. Therefore, male C57BL/6 mice (Janvier Labs (France), n=12 per group) were administered to the test item at a dose of 2 mg/kg (i.v.) and 8 mg/kg (p.o.), respectively. Intravenous application of Comp-02 (sodium salt in isotonic salt solution) and Comp-06 (free acid in DMSO/PEG400 20:80) was performed via the tail vein, and for oral administration via gavage. […] Blood sampling was of 100 μl were obtained at two different time point for each mouse (0.083/2 h, 0.25/4 h, 0.5/8 h and 1/24 h). Biological samples were subjected to an extraction procedure (40 μl Acetonitril+22.4 μl sample, shaking, 10 min centrifugation at 6000×g at room temperature, dilution of 50 μl supernatant 1:1 with water). For analysis 20 μl of sample were injected into the LC-MS, Accela 1250 UHPLC system, Accela Open Autosampler, Q-Exactive mass spectrometer (Thermo Fisher Scientific). Appropriate samples were used as controls: zero sample, calibration standard and QC sample. The pharmacokinetic analysis were performed applying a non-compartment model using the Kinetica 5.0 software (Thermo Scientific, Waltham, USA). All given parameters were obtained by trapezoid area calculation.

[3] = test system: isolated mouse hearts of 12-14 week old male C57BL6/n animals; experiment: Ischemia-reperfusion of isolated Langendorff-perfused mouse hearts (Example 11)
Protocol: Study design: To gain insight into the cardioprotective effects of synthetic 17,18-EEQ-agonists, ischemia-reperfusion studies were performed in isolated mouse hearts of 12-14 week old male C57BL6/n animals. Briefly, mice were anesthetized with i.p. injected pentobarbital/heparin, hearts were rapidly removed and perfused in a Langendorff apparatus. Excised hearts were put in ice-cold Krebs-Henseleit buffer and aortas were cannulated. Modified Krebs-Henseleit buffer for retrograde perfusion contained 118 mM NaCl, 3.5 mM KCl, 1.3 mM MgSO4, 2.5 mM CaCl2, 24.7 mM NaHCO3, 1.4 mM KH2PO4 and 11 mM glucose, was aerated with 95% O2-5% CO2 and kept at constant temperature of 37° C. and pH 7.3. Perfusion pressure was adjusted to 80 mmHg and a latex balloon connected to a pressure transducer was inserted in the left ventricle through the left atrium. Hearts were perfused with buffer for a 15 minutes stabilisation period, followed by 10 minutes perfusion with either the agonistic analog Comp-02 (100 nM) or vehicle (0.9% NaCl in water). Afterwards hearts were subjected to 35 minutes global no-flow ischemia followed by 40 minutes of reperfusion. Compound or vehicle perfusion was kept constant during the reperfusion time. To analyse recovery of contractile function the left ventricular developed pressure (LVdP) at different time points during reperfusion was measured and expressed as percentage of pre-ischemic LVdP. Exclusion criteria for the hearts were: (i) a LVdP below 60 mmHg at the end of the stabilisation phase (baseline measurement), (ii) a heart rate below 260 bpm, (iii) coronary flow below 1.5 or over 4 ml/min and finally (iv) severe sustained arrhythmias during the stabilisation phase. The results are presented in FIG. 1 and expressed as mean±SEM percentage of pre-ischemic LVdP. Data were analysed by two-tailed unpaired Student's t test and considered significant if p<0.05*.

[4] = test system: mouse neonatal primary cardiomyocyte culture; experiment: Oxygen-glucose deprivation/reoxygenation injury in primary cardiomyocytes; format: cell-based; conditions: for amelioration of loss of cell number: Hoechst 33342 staining
Protocol: In vitro ischemic injury was induced in mouse neonatal primary cardiomyocyte culture by oxygen-glucose deprivation for 18 hours and a 24 hours reoxygenation period in a humidified incubator with 5% CO2/95% air. Cardiomyocytes were incubated with the test compounds during 4 hours prior to the oxygen glucose depriviation (OGD) induction. The test compounds were also present during the OGD insult and during the 24 h-reoxygenation period. After the reoxygenation period, cell number was assessed by Hoechst 33342 staining, apoptosis was measured by determining caspase 3/7 activation, and cell membrane integrity or necrosis was measured as LDH release.
Data were expressed as mean±SD of three separate wells and individual comparisons were made with Student's t-test (SigmaPlot 9.0 program). The results were normalized to the normoxia-treated cells. Statistical significance (*) p<0.05 as compared to normoxia/DMSO-treated cells and (§) hypoxia/DMSO treated cells. Results

SMILES: CNC(=O)C(=O)NCCCC/C=C\CCCCCCCOCC(=O)O [Comp-02, 2-((13-(2-(methylamino)-2-oxoacetamido)tridec-8(Z)-en-1-yl)oxy)acetic acid]
- inhibition of human sEH [1]: did not show sEH-inhibition
- solubility in deionised water relative to Comp-06 (Aqueous solubility; 37° C.): ~10 ×
- solubility at 24 h (Aqueous solubility; read-out: Average solubility at 37° C.): 68 µg/mL (≈ 191 µM)
- solubility at 24 h (Aqueous solubility; read-out: Highest solubility value at 37° C.): 75 µg/mL (≈ 210 µM)
- solubility at 24 h (Aqueous solubility; read-out: Lowest solubility value at 37° C.): 59 µg/mL (≈ 166 µM)
- AUC(0-inf) ([2]; iv, 2 mg/kg): 524 ng·h/mL
- bioavailability ([2]; iv, 2 mg/kg): 100%
- AUC(0-inf) ([2]; po, 8 mg/kg): 1820 ng·h/mL
- Cmax, maximal observed plasma concentration ([2]; po, 8 mg/kg): 903.8 ng/mL
- Tmax ([2]; po, 8 mg/kg): 18 min
- bioavailability ([2]; po, 8 mg/kg): 87%
- Cmax ([2]; po, 8 mg/kg, Cmax, maximal observed plasma concentration): 903 ng/mL
- functional recovery, LVdP as percentage of pre-ischemic LVdP ([3]; 100 nM, 10 minutes reperfusion): 18%
- functional recovery, LVdP as percentage of pre-ischemic LVdP ([3]; 100 nM, 40 minutes reperfusion): 59%
- post-ischemic recovery of contractility function, in words ([3]; 100 nM, vs control group): significantly improved post-ischemic recovery of contractility function
- obvious negative side effects ([3]; continuous infusion of 100 nM): did not induce any obvious negative side effects
- reduction of cellular necrosis (LDH-release) ([4]; 30 nM): 43%
- amelioration of loss of cell number ([4]; 30 nM): 35%
- reduction of cellular necrosis (LDH-release) ([4]; 10 μM): 45%
- amelioration of loss of cell number ([4]; 10 μM): 44%
- protection against OGD-induced damage, in words ([4]; 18 h OGD, 24 h reoxygenation): partially protected against OGD-induced damage
- reduction of OGD-induced apoptosis ([4]; caspase 3/7 activation, concentration not given): 43%
- reduction of OGD-induced necrosis ([4]; concentration not given): 29%
